Measurements from US5364623A, “Antibiotic produced by Bacillus subtilis ATCC 55422 capable of inhibiting bacteria” (Bristol-Myers Squibb Company, priority 1993, dated 1994).
Values after ≈ are worked out from the molar mass of the structure shown.

How the values were obtained:
Escherichia coli K-10 = assay: MIC, liquid broth tube dilution assay, E. coli K-10; assay type: cell-based; conditions: H108 medium, 37° C., 6-7 hours
Procedure: (§1) (1) Determination of the minimum concentration of bacillaene required for total inhibition of growth (MIC) was performed using liquid H108 medium containing Bacto-Tryptone (10g); Bacto-yeast extract (5 g); NaCl (5 g); and distilled water (1 liter). The assays were performed in 13×100 mm glass tubes in a final volume of 0.5 ml. Two fold dilutions of the compound were utilized. The cultures were incubated at 37° C. in a test-tube rack on a shaker. Presence of turbidity was used as an indicator of growth. The tubes were read after 6-7 hours of incubation.

[1] = test system: Staphylococcus aureus SC-2400; assay: Agar diffusion, S. aureus SC-2400; assay type: cell-based; conditions: 25 μg per well, overnight at 37° C.
Procedure: (§2) (3) The effect of bacillaene on a wide spectrum of bacteria was determined using the agar diffusion method. The bacteria to be tested were grown in […] broth overnight at 37° C. This culture was used to inoculate […] agar using a standard pour plate method. A 1% inoculum of the overnight culture was used. Wells of 2 mm diameter were punched in the agar and bacillaene (25 μg) was loaded in each well. The plates were incubated overnight at 37° C. and lack of growth around the agar well was scored as inhibition by bacillaene of the growth of the organism.

Saccharomyces cervesiae = assay: Growth of eukaryotic cells; assay type: cell-based
[2] = test system: Procaryotic in vitro transc.-transl. sys.; assay: In vitro protein synthesis, procaryotic transcription-translation coupled system (35S incorporation); assay type: biochemical
Excerpt: A prokaryotic in vitro transcription-translation coupled system was used for these experiments (Promega Corporation, 2800, Woods Hollow Road, Madison, Wis.).

[3] = test system: Rabbit reticulocyte in vitro trans. sys.; assay: In vitro protein synthesis, eucaryotic (rabbit reticulocyte) translation system; assay type: biochemical
[4] = test system: Escherichia coli SGB-10857; assay: MIC, liquid broth tube dilution assay, E. coli SGB-10857; assay type: cell-based; conditions: H108 medium, 37° C., 6-7 hours
Procedure: as §1

Escherichia coli impB = assay: MIC, liquid broth tube dilution assay, E. coli impB; assay type: cell-based; conditions: H108 medium, 37° C., 6-7 hours
Procedure: as §1

Escherichia coli = assay: MIC, liquid broth tube dilution, E. coli strains overall; assay type: cell-based
Procedure: as §1

Escherichia coli SGB-888 = assay: MIC, liquid broth tube dilution assay, E. coli SGB-888; assay type: cell-based; conditions: H108 medium, 37° C., 6-7 hours
Procedure: as §1

[5] = test system: Staphylococcus aureus 209P; assay: Agar diffusion, S. aureus 209P; assay type: cell-based; conditions: 25 μg per well, overnight at 37° C.
Procedure: as §2

[6] = test system: Escherichia coli BAS-2006; assay: MIC, liquid broth tube dilution assay, E. coli BAS-2006; assay type: cell-based; conditions: H108 medium, 37° C., 6-7 hours
Procedure: as §1

For `C/C(=C/C=C/C=C/C(C)C(=O)O)NC(=O)CC(O)\C(C)=C/C=C\C=C(C)\C=C\C=C/C=C/CNC(=O)C(O)CC(C)C` (stereo not shown) [Bacillaene, bacillaene], the MIC (Escherichia coli K-10) was 37.0 µg/mL (≈ 63.7 µM), the “Growth Inhibition” value [1] was “++ (hazy)” and the “effect on growth of eukaryotic cells (in words)” value (Saccharomyces cervesiae) was “not observed to affect the growth”. For the same molecule, the “inhibition of procaryotic protein synthesis (in words)” value ([2]; 35S incorporation into trichloroacetic-acid-precipitable polypeptides) was “potent inhibitor of procaryotic protein synthesis”, the “Inhibition of in vitro protein synthesis, procaryotic in vitro transc.-transl. sys.” value ([2]; final conc. 0.75 μg/ml) was over 88.0% and the “Inhibition of in vitro protein synthesis, procaryotic in vitro transc.-transl. sys.” value ([2]; final conc. 1.5 μg/ml) was over 95.0%. For the same molecule, the “inhibition of eucaryotic in vitro protein translation system (in words)” value ([3]; at the concentrations tested) was “failed to inhibit”, the “Inhibition of in vitro protein synthesis, rabbit reticulocyte in vitro trans. sys.” value (“Inhibition … in vitro trans. sys.” for short) ([3]; final conc. 0.75 μg/ml) was under 7.0% and the “Inhibition … in vitro trans. sys.” value ([3]; final conc. 1.5 μg/ml) was under 7.0%. The “Inhibition … in vitro trans. sys.” value ([3]; final conc. 6.0 μg/ml) was under 7.0%, the MIC [4] was 5.0 µg/mL (≈ 8.61 µM) and the MIC (Escherichia coli impB) was 0.50 µg/mL (≈ 0.861 µM). The “potency against certain strains of Escherichia coli (in words)” value (Escherichia coli) was “extremely potent”, the MIC (Escherichia coli SGB-888) was 0.09 µg/mL (≈ 0.155 µM) and the “Growth Inhibition” value [5] was “++ (hazy)”. For the same molecule, the MIC [6] was 0.60 µg/mL (≈ 1.03 µM).
